Reference: PubChem BioAssay AID1794820

Target: Na(+)/dicarboxylate cotransporter 3 (Homo sapiens) (UniProt Q8WWT9)
Assay: SLC13A3 dicarboxylate substrate-evoked depolarization, dose response, membrane potential dye, HEK-293 overexpressing cells (AID 1794820)
Settings: HEK-293 SLC13A3 OE, FLIPR membrane potential dye

Sequence of Na(+)/dicarboxylate cotransporter 3 (Homo sapiens) (Q8WWT9 whole entry, looked up): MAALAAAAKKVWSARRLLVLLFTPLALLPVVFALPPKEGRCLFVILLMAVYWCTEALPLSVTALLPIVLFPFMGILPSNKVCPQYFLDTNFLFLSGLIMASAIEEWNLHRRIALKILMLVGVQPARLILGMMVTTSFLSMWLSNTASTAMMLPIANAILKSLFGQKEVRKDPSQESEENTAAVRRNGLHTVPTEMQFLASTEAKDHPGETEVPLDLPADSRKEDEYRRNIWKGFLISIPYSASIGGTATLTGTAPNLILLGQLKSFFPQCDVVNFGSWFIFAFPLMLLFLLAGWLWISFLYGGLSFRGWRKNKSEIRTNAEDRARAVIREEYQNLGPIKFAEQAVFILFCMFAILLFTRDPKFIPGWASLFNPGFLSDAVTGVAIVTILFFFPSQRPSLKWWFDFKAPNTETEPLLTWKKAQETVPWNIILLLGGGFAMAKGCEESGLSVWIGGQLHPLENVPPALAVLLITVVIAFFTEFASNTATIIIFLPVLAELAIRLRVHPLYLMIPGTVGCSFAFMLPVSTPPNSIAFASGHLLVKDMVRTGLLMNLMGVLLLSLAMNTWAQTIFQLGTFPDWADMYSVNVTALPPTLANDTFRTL

Row | Structure (SMILES) | EC50 [µM]
1 | O=C(O)CCC(=O)C(=O)O | 54
2 | O=C(O)CCC(=O)O | 107
